# Reference: patent US11236081B2, “Crystalline salts of corydalmine” (priority 2018, dated 2022)
# Several values for one entry are separate records, joined by “and”; a condition that tells them apart may be missing. Equal entries are not always repeated.
# Assays:
# [1] = Dynamic vapor sorption (DVS), hygroscopicity at 25° C.; assay type: physicochemical
# Protocol: Dynamic Vapor Sorption (DVS)
# DVS was determined using DVS Intrinsic (SMS, UK). Transfer about 20 to 50 mg of the compound into a SMS dynamic vapor sorption model DVS and record the weight change with respect to a varying atmospheric humidity at 25° C.
# [2] = Solubility studies in water at 2 hours; assay type: physicochemical
# [3] = Pharmacokinetic study: plasma concentration and plasma PK parameters after IV/PO dosing (LC-MS/MS, WinNonlin); assay type: in vivo, Male SD Rat; conditions: for concentration in plasma / concentration in plasma, Mean: male SD rat, PO 10 mg/kg (equal to freebase), vehicle 20% HP-β-CD in water (POA, freebase) or water (salts); for concentration in plasma: individual rats; for concentration in plasma, Mean: mean n=3
# Source text: Pharmacokinetic and Brain Penetration Study
# Dose formulation processing during dosing: The dose formulations will be kept at room temperature.
# Concentrations of Test Article in the plasma samples will be analyzed using a LC-MS/MS method.
# WinNonlin (Phoenix™, version 6.1) or other similar software will be used for pharmacokinetic calculations. The following pharmacokinetic parameters will be calculated, whenever possible from the plasma concentration versus time data:
# IV administration: T1/2, C0, AUClast, AUCinf, MRTinf, Cl, Vss, Number of Points for Regression.
# PO administration: T1/2, Cmax, Tmax, MRTinf, AUCinf, AUClast, F %, Number of Points for Regression.
# The pharmacokinetic data will be described using descriptive statistics such as mean, standard deviation.
# [4] = plasma, PO (group POE), 10 mg/kg, individual rats R40, R41, R42, 10 mg/kg
# [5] = plasma, PO (group POE), 10 mg/kg, mean of R40-R42
structure (smiles),measurement,setting,value
COc1cc2c(cc1OC)[C@@H]1Cc3ccc(O)c(OC)c3CN1CC2.O=C(O)C(=O)O [TLZ-16 oxalate],hygroscopicity (DVS),"[1]; DVS, 25° C.",slightly hygroscopic
same,solid form after DVS test,[1]; after DVS test,does not change
same,water absorbed in DVS,"[1]; at 80% RH, 25° C.",about 0.25 wt %
same,solubility in water,[2],approximately 19.2 mg/mL
same,F,"[3]; PO (group POE), 10 mg/kg, individual rats R40, R41, R42, 10 mg/kg",18.5% and 28.8% and 25.3%
same,"F, Mean","[3]; PO (group POE), 10 mg/kg, mean of R40-R42",24.2%
same,concentration in plasma,[3]; 0 h,BLOQ (BLOQ = below limit of quantitation (0.2 ng/mL))
same,concentration in plasma,"[3]; 0.25 h, 10 mg/kg",302 ng/mL and 368 ng/mL and 131 ng/mL
same,"concentration in plasma, Mean",[3]; 0.25 h,267 ng/mL
same,concentration in plasma,"[3]; 0.5 h, 10 mg/kg",270 ng/mL and 309 ng/mL and 148 ng/mL
same,"concentration in plasma, Mean",[3]; 0.5 h,242 ng/mL
same,concentration in plasma,"[3]; 1 h, 10 mg/kg",143 ng/mL and 200 ng/mL and 121 ng/mL
same,"concentration in plasma, Mean",[3]; 1 h,155 ng/mL
same,concentration in plasma,"[3]; 2 h, 10 mg/kg",70.8 ng/mL and 86.0 ng/mL and 156 ng/mL
same,"concentration in plasma, Mean",[3]; 2 h,104 ng/mL
same,concentration in plasma,"[3]; 4 h, 10 mg/kg",63.1 ng/mL and 120 ng/mL and 95.0 ng/mL
same,"concentration in plasma, Mean",[3]; 4 h,92.7 ng/mL
same,concentration in plasma,"[3]; 8 h, 10 mg/kg",10.1 ng/mL and 56.8 ng/mL and 29.1 ng/mL
same,"concentration in plasma, Mean",[3]; 8 h,32.0 ng/mL
same,concentration in plasma,[3]; 24 h,BLOQ (BLOQ = below limit of quantitation (0.2 ng/mL))
same,AUCInf,[3]; [4],629 ng·h/mL and 1369 ng·h/mL and 859 ng·h/mL
same,AUClast,[3]; [4],600 ng·h/mL and 960 ng·h/mL and 756 ng·h/mL
same,AUClast/D,[3]; [4],60 kg·ng·h/mL/mg and 96 kg·ng·h/mL/mg and 75.6 kg·ng·h/mL/mg
same,AUC—% Extrap_obs,[3]; [4],4.67% and 29.8% and 12.0%
same,Cmax,[3]; [4],302 ng/mL and 368 ng/mL and 156 ng/mL
same,MRTInf_obs,[3]; [4],2.59 h and 6.60 h and 3.95 h
same,T1/2,[3]; [4],2.02 h and 4.98 h and 2.46 h
same,Tmax,[3]; [4],0.25 h (2×) and 2 h
same,"AUCInf, Mean",[3]; [5],952 ng·h/mL
same,"AUClast, Mean",[3]; [5],772 ng·h/mL
same,"AUClast/D, Mean",[3]; [5],77.2 kg·ng·h/mL/mg
same,"AUC—% Extrap_obs, Mean",[3]; [5],15.5%
same,"Cmax, Mean",[3]; [5],275 ng/mL
same,"MRTInf_obs, Mean",[3]; [5],4.38 h
same,"T1/2, Mean",[3]; [5],3.15 h
same,"Tmax, Mean",[3]; [5],0.833 h
